# Laboratory results from publication PMC6825211 (Nature Communications, 2019).
# Where “and” joins values, the source holds several entries; their conditions need not be identical. Equal entries are not always repeated.
# Columns and labels:
# [1] = target: MEK1 (Homo sapiens, UniProt Q02750); assay: Nanosyn kinase profiling, mobility shift assay; type: biochemical
# [2] = target: JAK1 (Homo sapiens, UniProt P23458); assay: Nanosyn kinase profiling, mobility shift assay; conditions: read-out: % inhibition by neratinib
# [3] = system: obese diabetic Lepr db/db mice; assay: db/db model: β-cell mass; type: in vivo, mouse; conditions: for BCM: dbdb mice
# Description: Data are representative of six mice per group (n = 6 for (a–f)). g–j Mice were killed at day 31. g β-cell mass (given as percentage of the whole pancreatic section from ten sections spanning the width of the pancreas; n = 5 mice/group) and quantitative analyses from triple stainings for (h) TUNEL, (i) Ki67, (j) pHH3, and (k) nuclear PDX1 expression, insulin, and DAPI expressed as percentage of TUNEL-, Ki67-, pHH3-, or nuclear PDX1-positive β-cells ± SEM. An average number of 13667 (h), 5937 (i), 7108 (j), or 4330 (k) β-cells were counted from n = 3–5 (h, i, k) or n = 5–6 (j) mice/group.
# For morphometric data, ten sections (spanning the width of the pancreas) per mouse were analyzed. Pancreatic tissue area and insulin-positive area were determined by computer-assisted measurements by using a Nikon MEA53200 (Nikon GmbH, Dusseldorf, Germany) microscope, and images were acquired by using NIS-Elements software (Nikon). β-cell mass was obtained by multiplying the β-cell fraction by the weight of the pancreas.
# [4] = target: IKK-BETA (Homo sapiens, UniProt O14920); assay: Nanosyn kinase profiling, mobility shift assay; conditions: read-out: % inhibition by neratinib
# [5] = system: obese diabetic Lepr db/db mice; assay: db/db model: ratio of secreted insulin and glucose at fed state; type: in vivo, mouse; conditions: dbdb Nera
# [6] = target: MAP4K4 (Homo sapiens, UniProt O95819); assay: biochemical; conditions: read-out: % inhibition by neratinib
# Chain of MAP4K4 (O95819 whole entry, species assumed): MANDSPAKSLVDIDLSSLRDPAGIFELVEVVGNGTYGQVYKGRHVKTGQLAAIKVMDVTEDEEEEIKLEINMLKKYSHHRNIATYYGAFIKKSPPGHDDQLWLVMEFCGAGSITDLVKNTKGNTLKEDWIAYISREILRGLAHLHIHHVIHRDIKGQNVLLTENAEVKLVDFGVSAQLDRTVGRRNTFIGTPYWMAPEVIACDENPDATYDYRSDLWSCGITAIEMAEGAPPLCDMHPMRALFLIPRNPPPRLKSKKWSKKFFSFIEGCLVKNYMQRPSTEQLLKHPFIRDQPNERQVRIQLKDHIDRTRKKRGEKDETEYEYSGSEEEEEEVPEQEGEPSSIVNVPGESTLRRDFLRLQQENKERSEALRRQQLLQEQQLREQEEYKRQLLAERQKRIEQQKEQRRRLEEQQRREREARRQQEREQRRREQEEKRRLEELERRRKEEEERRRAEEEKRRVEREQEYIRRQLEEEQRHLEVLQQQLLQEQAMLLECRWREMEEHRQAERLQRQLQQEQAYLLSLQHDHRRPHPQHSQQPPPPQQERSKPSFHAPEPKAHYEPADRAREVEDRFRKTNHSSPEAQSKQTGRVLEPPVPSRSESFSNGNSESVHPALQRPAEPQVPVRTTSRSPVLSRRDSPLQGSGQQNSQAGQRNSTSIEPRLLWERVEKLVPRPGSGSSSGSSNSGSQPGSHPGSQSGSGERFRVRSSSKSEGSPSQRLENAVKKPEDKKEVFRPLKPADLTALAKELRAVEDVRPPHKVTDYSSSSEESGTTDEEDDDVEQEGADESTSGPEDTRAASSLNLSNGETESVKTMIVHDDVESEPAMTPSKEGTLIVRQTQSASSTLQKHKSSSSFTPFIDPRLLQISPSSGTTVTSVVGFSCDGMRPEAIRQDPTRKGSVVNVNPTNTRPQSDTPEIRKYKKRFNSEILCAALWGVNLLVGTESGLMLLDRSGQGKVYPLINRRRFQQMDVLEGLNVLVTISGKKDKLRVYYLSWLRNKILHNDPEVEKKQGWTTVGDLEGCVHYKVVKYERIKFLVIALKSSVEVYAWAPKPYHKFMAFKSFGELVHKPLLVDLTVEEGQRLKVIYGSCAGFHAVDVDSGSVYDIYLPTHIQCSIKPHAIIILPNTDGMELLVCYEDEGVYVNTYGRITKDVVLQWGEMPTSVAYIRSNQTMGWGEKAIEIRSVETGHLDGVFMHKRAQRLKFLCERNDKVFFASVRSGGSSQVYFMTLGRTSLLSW
# [7] = system: MLD–STZ C57BL/6J mice; assay: MLD–STZ model: ratio of secreted insulin and glucose at fed state; type: in vivo, mouse
# [8] = target: SGK1 (Homo sapiens, UniProt O00141); assay: Nanosyn kinase profiling, mobility shift assay; conditions: read-out: % inhibition by neratinib
# [9] = target: MET (Homo sapiens, UniProt P08581); assay: Nanosyn kinase profiling, mobility shift assay; conditions: read-out: % inhibition by neratinib
# Chain of MET (P08581 25-1390): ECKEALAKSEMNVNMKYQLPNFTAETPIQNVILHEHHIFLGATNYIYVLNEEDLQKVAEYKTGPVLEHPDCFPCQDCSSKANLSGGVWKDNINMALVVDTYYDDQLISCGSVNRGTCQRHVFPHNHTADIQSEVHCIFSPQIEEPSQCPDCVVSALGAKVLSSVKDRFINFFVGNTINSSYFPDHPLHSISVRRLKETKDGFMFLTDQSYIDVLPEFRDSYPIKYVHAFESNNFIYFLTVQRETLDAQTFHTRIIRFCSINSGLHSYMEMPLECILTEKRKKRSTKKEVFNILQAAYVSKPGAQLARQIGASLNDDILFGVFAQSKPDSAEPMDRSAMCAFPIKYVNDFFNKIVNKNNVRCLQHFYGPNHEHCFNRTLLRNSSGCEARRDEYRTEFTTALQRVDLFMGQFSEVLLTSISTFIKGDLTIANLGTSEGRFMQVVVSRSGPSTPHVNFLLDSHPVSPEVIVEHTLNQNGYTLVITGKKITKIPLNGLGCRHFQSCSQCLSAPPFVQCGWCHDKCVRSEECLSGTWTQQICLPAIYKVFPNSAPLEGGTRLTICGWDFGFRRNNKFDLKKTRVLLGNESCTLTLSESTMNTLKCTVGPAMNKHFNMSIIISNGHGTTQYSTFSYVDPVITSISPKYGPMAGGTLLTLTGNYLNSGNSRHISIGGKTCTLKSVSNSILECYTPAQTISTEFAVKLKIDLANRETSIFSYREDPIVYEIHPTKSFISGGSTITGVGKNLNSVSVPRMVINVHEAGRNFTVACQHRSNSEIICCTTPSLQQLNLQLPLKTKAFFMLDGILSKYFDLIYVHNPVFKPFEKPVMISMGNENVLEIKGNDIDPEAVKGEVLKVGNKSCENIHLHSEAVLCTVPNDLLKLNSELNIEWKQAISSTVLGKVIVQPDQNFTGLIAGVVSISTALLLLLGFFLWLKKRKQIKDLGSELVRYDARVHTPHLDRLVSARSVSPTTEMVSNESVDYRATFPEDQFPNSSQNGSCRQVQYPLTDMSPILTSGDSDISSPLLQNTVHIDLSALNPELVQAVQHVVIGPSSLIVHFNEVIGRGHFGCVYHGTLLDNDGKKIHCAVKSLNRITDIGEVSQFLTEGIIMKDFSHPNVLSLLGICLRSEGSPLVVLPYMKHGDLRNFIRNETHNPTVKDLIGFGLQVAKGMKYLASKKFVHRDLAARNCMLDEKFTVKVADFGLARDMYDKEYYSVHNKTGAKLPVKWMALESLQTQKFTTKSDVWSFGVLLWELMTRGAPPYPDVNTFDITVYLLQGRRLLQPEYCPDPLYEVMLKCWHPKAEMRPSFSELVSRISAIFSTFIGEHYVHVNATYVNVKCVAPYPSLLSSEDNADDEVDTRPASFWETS
# [10] = target: NEK2 (Homo sapiens, UniProt P51955); assay: Nanosyn kinase profiling, mobility shift assay; conditions: read-out: % inhibition by neratinib
# [11] = system: isolated islets from db/db mice; assay: Ex vivo β-cell apoptosis (TUNEL) in isolated db/db islets; type: cell-based, mouse; conditions: for TUNEL%: dbdb islets with Nera
# [12] = target: T1, MST3 (Homo sapiens, UniProt Q9Y6E0); assay: Nanosyn kinase profiling, mobility shift assay; type: biochemical; conditions: 12 points dose response
# T1 construct: Nanosyn (assay service)
# Method: (§1) inhibition was determined for each assay.
# [13] = target: T2, HIPK1 (Homo sapiens, UniProt Q86Z02); assay: Nanosyn kinase profiling, mobility shift assay; type: biochemical; conditions: 12 points dose response
# T2 construct: Nanosyn (assay service)
# Method: as §1
# [14] = target: T3, CHEK2 (Homo sapiens, UniProt O96017); assay: Nanosyn kinase profiling, mobility shift assay; type: biochemical; conditions: 12 points dose response
# T3 construct: Nanosyn (assay service)
# Method: as §1
# [15] = target: PAK3 (Homo sapiens, UniProt O75914); assay: Nanosyn kinase profiling, mobility shift assay; type: biochemical; conditions: 12 points dose response
# Chain of PAK3 (O75914 whole entry, species assumed): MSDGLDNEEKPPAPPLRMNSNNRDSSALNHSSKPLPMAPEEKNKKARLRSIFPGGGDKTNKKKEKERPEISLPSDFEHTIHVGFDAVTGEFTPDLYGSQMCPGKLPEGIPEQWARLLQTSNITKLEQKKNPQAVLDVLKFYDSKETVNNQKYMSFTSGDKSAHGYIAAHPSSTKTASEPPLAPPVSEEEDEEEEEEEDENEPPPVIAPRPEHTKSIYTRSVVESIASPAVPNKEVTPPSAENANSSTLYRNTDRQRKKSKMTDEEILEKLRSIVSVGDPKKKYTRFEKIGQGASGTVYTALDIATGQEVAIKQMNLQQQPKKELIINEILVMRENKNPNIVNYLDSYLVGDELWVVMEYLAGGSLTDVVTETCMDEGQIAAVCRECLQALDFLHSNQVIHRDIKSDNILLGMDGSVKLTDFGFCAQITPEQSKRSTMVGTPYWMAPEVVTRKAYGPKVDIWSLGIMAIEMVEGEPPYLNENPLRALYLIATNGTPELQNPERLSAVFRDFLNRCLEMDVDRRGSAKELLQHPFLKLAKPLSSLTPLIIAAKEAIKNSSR
# Method: as §1
# [16] = target: T4, PAK6 (Homo sapiens, UniProt Q9NQU5); assay: Nanosyn kinase profiling, mobility shift assay; type: biochemical; conditions: 12 points dose response
# T4 construct: Nanosyn (assay service)
# Method: as §1
# [17] = target: T5, AXL (Homo sapiens, UniProt P30530); assay: Nanosyn kinase profiling, mobility shift assay; type: biochemical; conditions: 12 points dose response
# T5 construct: Nanosyn (assay service)
# Method: as §1
# [18] = target: T6, PHK1 (Homo sapiens, UniProt Q16816); assay: Nanosyn kinase profiling, mobility shift assay; type: biochemical; conditions: 12 points dose response
# T6 construct: Nanosyn (assay service)
# Method: as §1
# [19] = target: MAP4K2 (Homo sapiens, UniProt Q12851); assay: Nanosyn kinase profiling, mobility shift assay; type: biochemical; conditions: 12 points dose response
# Chain of MAP4K2 (Q12851 whole entry, species assumed): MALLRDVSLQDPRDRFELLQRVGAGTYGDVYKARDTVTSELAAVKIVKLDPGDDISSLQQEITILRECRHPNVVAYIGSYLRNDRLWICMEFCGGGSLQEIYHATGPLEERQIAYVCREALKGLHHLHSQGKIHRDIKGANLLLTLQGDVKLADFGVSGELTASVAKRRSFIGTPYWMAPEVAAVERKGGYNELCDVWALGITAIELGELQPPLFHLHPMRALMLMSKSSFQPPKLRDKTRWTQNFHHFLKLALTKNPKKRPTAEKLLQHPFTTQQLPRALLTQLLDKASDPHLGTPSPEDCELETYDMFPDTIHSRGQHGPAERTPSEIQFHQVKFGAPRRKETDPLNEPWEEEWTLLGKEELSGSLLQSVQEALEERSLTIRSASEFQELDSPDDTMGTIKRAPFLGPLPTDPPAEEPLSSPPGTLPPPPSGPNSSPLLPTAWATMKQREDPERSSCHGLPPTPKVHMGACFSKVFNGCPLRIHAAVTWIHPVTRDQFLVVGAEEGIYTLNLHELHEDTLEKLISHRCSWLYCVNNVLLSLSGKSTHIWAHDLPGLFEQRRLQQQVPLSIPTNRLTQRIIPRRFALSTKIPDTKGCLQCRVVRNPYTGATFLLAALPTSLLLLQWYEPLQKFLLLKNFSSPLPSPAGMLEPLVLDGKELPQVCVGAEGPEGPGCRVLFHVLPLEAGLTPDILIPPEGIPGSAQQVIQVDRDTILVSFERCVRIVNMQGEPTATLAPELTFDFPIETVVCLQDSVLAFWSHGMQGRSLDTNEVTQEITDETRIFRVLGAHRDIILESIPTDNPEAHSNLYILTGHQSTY
# Method: as §1
# [20] = target: T7, PAK5 (Homo sapiens, UniProt Q9P286); assay: Nanosyn kinase profiling, mobility shift assay; type: biochemical; conditions: 12 points dose response
# T7 construct: Nanosyn (assay service)
# T7 sequence (Q9P286 whole entry): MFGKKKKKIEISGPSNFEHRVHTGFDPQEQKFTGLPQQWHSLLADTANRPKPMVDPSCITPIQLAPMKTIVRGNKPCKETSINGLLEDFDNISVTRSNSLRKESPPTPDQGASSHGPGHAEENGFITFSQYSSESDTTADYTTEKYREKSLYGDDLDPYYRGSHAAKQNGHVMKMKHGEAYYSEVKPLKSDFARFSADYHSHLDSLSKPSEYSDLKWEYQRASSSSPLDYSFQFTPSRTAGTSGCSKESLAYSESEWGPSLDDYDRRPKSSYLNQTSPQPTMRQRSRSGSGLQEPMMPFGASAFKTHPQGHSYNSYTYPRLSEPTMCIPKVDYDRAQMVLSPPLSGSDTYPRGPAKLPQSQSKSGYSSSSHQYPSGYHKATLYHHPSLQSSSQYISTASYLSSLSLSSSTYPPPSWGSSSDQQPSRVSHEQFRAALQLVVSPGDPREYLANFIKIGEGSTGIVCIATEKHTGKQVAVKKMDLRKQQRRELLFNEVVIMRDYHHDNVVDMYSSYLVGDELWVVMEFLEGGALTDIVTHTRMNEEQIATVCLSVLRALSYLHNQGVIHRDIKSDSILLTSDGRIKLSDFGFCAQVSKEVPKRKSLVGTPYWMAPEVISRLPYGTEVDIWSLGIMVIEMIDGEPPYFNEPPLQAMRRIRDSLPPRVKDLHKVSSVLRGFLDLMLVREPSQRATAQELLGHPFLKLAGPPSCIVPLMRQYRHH
# Method: as §1
# [21] = target: PIM-1-KINASE (Homo sapiens, UniProt P11309); assay: Nanosyn kinase profiling, mobility shift assay; conditions: read-out: % inhibition by neratinib
# Chain of MEK1 (Q02750 whole entry, species assumed): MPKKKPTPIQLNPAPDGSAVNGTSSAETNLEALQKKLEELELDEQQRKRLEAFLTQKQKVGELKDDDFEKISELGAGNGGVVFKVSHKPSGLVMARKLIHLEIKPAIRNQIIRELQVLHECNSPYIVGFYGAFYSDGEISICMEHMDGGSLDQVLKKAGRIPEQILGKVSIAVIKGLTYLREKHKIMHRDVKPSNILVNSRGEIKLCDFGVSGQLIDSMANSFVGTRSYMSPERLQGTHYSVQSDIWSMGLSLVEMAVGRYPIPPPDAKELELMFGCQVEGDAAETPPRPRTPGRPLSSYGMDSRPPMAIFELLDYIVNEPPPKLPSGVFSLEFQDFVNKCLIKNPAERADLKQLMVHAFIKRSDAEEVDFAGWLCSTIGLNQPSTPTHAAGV
compound,measurement,setting,value
CCOc1cc2ncc(C#N)c(Nc3ccc(OCc4ccccn4)c(Cl)c3)c2cc1NC(=O)/C=C/CN(C)C [neratinib],IC50,[1]; 12 points dose response,1.49 µM
same,inhibition at 10 µM,[1]; read-out: % inhibition by neratinib,73%
same,inhibition at 10 µM,[2],5%
same,β-cell mass,"[3]; db/db, day 31",increased β-cell mass
same,BCM,[3]; Mean,4.571
same,BCM,[3]; individual mice,1.526 and 8.3226 and 3.26 and 4.639 and 5.1069
same,inhibition at 10 µM,[4],-7%
same,ins/gluc,[5]; Mean,13.8584
same,ins/gluc,"[5]; fed state, individual mice",16.7538 and 11.2869 and 14.8626 and 15.5775 and 11.515 and 13.1546
same,inhibition at 10 µM,[6],73%
same,ins/gluc,"[7]; NeraCtr, Mean",4.232
same,ins/gluc,"[7]; NeraCtr, fed state, individual mice",5.92 and 11.7581 and 5.035 and 1.3144 and 2.029 and 2.349 and 1.295 and 4.152
same,ins/gluc,"[7]; NeraSTZ, Mean",2.006
same,ins/gluc,"[7]; NeraSTZ, fed state, individual mice",2.868 and 0.965 (2×) and 1.859 and 3.923 and 1.035 and 2.9255 and 4.307 and 0.6012 and 1.262 and 1.53 and 2.798 and 0.7155 and 2.33
same,inhibition at 10 µM,[8],28%
same,inhibition at 10 µM,[9],28%
same,inhibition at 10 µM,[10],68%
same,β-cell survival in db/db islets ex vivo,"[11]; 10 μM, 24 h",fully restored β-cell survival
same,TUNEL%,[11]; MEAN,1.158%
same,TUNEL%,[11]; individual replicates,1.875% and 1.213% and 0.7124% and 0.9025% and 0.3448% and 1.9025%
same,IC50,[12],0.005 µM
same,IC50,[13],> 20 µM
same,IC50,[14],0.937 µM
same,IC50,[15],1.5 µM
same,IC50,[16],> 20 µM
same,IC50,[17],0.185 µM
same,IC50,[18],5.85 µM
same,IC50,[19],0.102 µM
same,IC50,[20],> 20 µM
same,inhibition at 10 µM,[21],13%
